In patent US6737383B1, “Herbicidal oxadiazolidines” (priority 1999, dated 2004):

How the values were obtained:
bedstraw = experiment: Test B pre/postemergence bedstraw; type: in vivo, Galium aparine
How it was run: (§1)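 Test chemicals in a non-phytotoxic solvent mixture with surfactant were sprayed preemergence onto planted seeds and postemergence onto plants 2 to 18 cm tall (1- to 4-leaf stage). After twelve to sixteen days in a greenhouse, injury was visually rated against untreated controls from 0 (no effect) to 10 (complete control).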

blackgrass = experiment: Test B pre/postemergence blackgrass; type: in vivo, Alopecurus myosuroides
How it was run: as §1

surinam grass = experiment: Test B pre/postemergence surinam grass; type: in vivo, Brachiaria decumbens
How it was run: as §1

cocklebur = experiment: Test B pre/postemergence cocklebur; type: in vivo, Xanthium strumarium
How it was run: as §1

corn = experiment: Test B pre/postemergence corn; type: in vivo, Zea mays
How it was run: as §1

crabgrass = experiment: Test B pre/postemergence crabgrass; type: in vivo, Digitaria sanguinalis
How it was run: as §1

giant foxtail = experiment: Test B pre/postemergence giant foxtail; type: in vivo, Setaria faberii
How it was run: as §1

morningglory = experiment: Test B pre/postemergence morningglory; type: in vivo, Ipomoea hederacea
How it was run: as §1

pigweed = experiment: Test B pre/postemergence pigweed; type: in vivo, Amaranthus retroflexus
How it was run: as §1

rape = experiment: Test B pre/postemergence rape; type: in vivo, Brassica napus
How it was run: as §1

soybean = experiment: Test B pre/postemergence soybean; type: in vivo, Glycine max
How it was run: as §1

sugar beet = experiment: Test B pre/postemergence sugar beet; type: in vivo, Beta vulgaris
How it was run: as §1

velvetleaf = experiment: Test B pre/postemergence velvetleaf; type: in vivo, Abutilon theophrasti
How it was run: as §1

wheat = experiment: Test B pre/postemergence wheat; type: in vivo, Triticum aestivum
How it was run: as §1

wild oat = experiment: Test B pre/postemergence wild oat; type: in vivo, Avena fatua
How it was run: as §1

purple nutsedge = experiment: Test B pre/postemergence purple nutsedge; type: in vivo, Cyperus rotundus
How it was run: as §1

rice = experiment: Test B flood test rice; type: in vivo, Oryza sativa
How it was run: (§2)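 Flood test on plants grown to the 2-leaf stage; treated plants kept in greenhouse twelve to sixteen days, then visually rated against controls on a 0 (no effect) to 10 (complete control) scale.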

smallflower flatsedge = experiment: Test B flood test smallflower flatsedge; type: in vivo, Cyperus difformis
How it was run: as §2

duck salad = experiment: Test B flood test duck salad; type: in vivo, Heteranthera limosa
How it was run: as §2

bamyardgrass = experiment: Test B flood test barnyardgrass; type: in vivo, Echinochloa crus-galli
How it was run: as §2

[1] = Postemergence, Rate 62 g/ha, scale 0 to 10, 0 is no effect, 10 is complete control
[2] = Postemergence, Rate 250 g/ha, scale 0 to 10, 0 no effect, 10 complete control
[3] = Preemergence, Rate 62 g/ha, scale 0 to 10, 0 is no effect, 10 is complete control
[4] = Preemergence, Rate 125 g/ha, scale 0 to 10 (0 no effect, 10 complete control)
[5] = Preemergence, Rate 250 g/ha, scale of 0 to 10 where 0 is no effect and 10 is complete control
[6] = Preemergence, Rate 500 g/ha, scale 0 (no effect) to 10 (complete control)
[7] = Rate 125 g/ha, Postemergence, scale 0 to 10, 0 no effect, 10 complete control
[8] = Rate 500 g/ha, Postemergence, 0 to 10 scale (0 no effect, 10 complete control)
[9] = Rate 125 g/ha, Postemergence section (flood test species), scale 0 to 10, 0 no effect, 10 complete control
[10] = Rate 500 g/ha, Postemergence section of Table B, 0 to 10 scale (0 no effect, 10 complete control)
[11] = flood test, listed under Postemergence, Rate 250 g/ha, scale 0 to 10, 0 no effect, 10 complete control

CC(C)N(C(=O)n1oc(=O)n(-c2ccccc2C(F)(F)F)c1=O)c1ccc(F)cc1 [Compound 15] was tested, and the “Bedstraw plant response rating” value (bedstraw; [1]) was 0, the “Bedstraw plant response rating” value (bedstraw; [2]) was 0 and the “Plant response rating, Bedstraw” value (bedstraw; [3]) was 0. The “Plant response rating, Bedstraw” value (bedstraw; [4]) was 0, the “Plant response rating, Bedstraw” value (bedstraw; [5]) was 0 and the “Bedstraw plant response rating” value (bedstraw; [6]) was 7. For the same compound, the “Bedstraw plant response rating” value (bedstraw; [7]) was 0, the “Bedstraw plant response rating” value (bedstraw; [8]) was 4 and the “Blackgrass plant response rating” value (blackgrass; [1]) was 0. The “Blackgrass plant response rating” value (blackgrass; [2]) was 0, the “Plant response rating, Blackgrass” value (blackgrass; [3]) was 0 and the “Plant response rating, Blackgrass” value (blackgrass; [4]) was 0. For the same compound, the “Plant response rating, Blackgrass” value (blackgrass; [5]) was 0, the “Blackgrass plant response rating” value (blackgrass; [6]) was 0 and the “Blackgrass plant response rating” value (blackgrass; [7]) was 0. For the same compound, the “Blackgrass plant response rating” value (blackgrass; [8]) was 3, the “B. signalgrass plant response rating” value (surinam grass; [1]) was 0 and the “B. signalgrass plant response rating” value (surinam grass; [2]) was 0. For the same compound, the “Plant response rating, B. signalgrass” value (surinam grass; [3]) was 0, the “Plant response rating, B. signalgrass” value (surinam grass; [4]) was 0 and the “Plant response rating, B. signalgrass” value (surinam grass; [5]) was 0. The “B. signalgrass plant response rating” value (surinam grass; [6]) was 0, the “B. signalgrass plant response rating” value (surinam grass; [7]) was 0 and the “B. signalgrass plant response rating” value (surinam grass; [8]) was 0. For the same compound, the “Cocklebur plant response rating” value (cocklebur; [1]) was 0, the “Cocklebur plant response rating” value (cocklebur; [2]) was 5 and the “Plant response rating, Cocklebur” value (cocklebur; [3]) was 0. The “Plant response rating, Cocklebur” value (cocklebur; [4]) was 0, the “Cocklebur plant response rating” value (cocklebur; [6]) was 0 and the “Cocklebur plant response rating” value (cocklebur; [7]) was 0. For the same compound, the “Cocklebur plant response rating” value (cocklebur; [8]) was 8, the “Corn plant response rating” value (corn; [1]) was 0 and the “Corn plant response rating” value (corn; [2]) was 0. The “Plant response rating, Corn” value (corn; [3]) was 0, the “Plant response rating, Corn” value (corn; [4]) was 0 and the “Corn plant response rating” value (corn; [6]) was 0. For the same compound, the “Corn plant response rating” value (corn; [7]) was 0, the “Corn plant response rating” value (corn; [8]) was 0 and the “Crabgrass plant response rating” value (crabgrass; [1]) was 0. The “Crabgrass plant response rating” value (crabgrass; [2]) was 3, the “Plant response rating, Crabgrass” value (crabgrass; [3]) was 0 and the “Plant response rating, Crabgrass” value (crabgrass; [4]) was 2. The “Crabgrass plant response rating” value (crabgrass; [6]) was 10, the “Crabgrass plant response rating” value (crabgrass; [7]) was 1 and the “Crabgrass plant response rating” value (crabgrass; [8]) was 8. For the same compound, the “Giant foxtail plant response rating” value (giant foxtail; [1]) was 0, the “Giant foxtail plant response rating” value (giant foxtail; [2]) was 0 and the “Plant response rating, Giant foxtail” value (giant foxtail; [3]) was 6. For the same compound, the “Plant response rating, Giant foxtail” value (giant foxtail; [4]) was 8, the “Giant foxtail plant response rating” value (giant foxtail; [6]) was 10 and the “Giant foxtail plant response rating” value (giant foxtail; [7]) was 0. The “Giant foxtail plant response rating” value (giant foxtail; [8]) was 0, the “Morningglory plant response rating” value (morningglory; [1]) was 2 and the “Morningglory plant response rating” value (morningglory; [2]) was 6. The “Plant response rating, Morningglory” value (morningglory; [3]) was 0, the “Plant response rating, Morningglory” value (morningglory; [4]) was 0 and the “Morningglory plant response rating” value (morningglory; [6]) was 0. For the same compound, the “Morningglory plant response rating” value (morningglory; [7]) was 2, the “Morningglory plant response rating” value (morningglory; [8]) was 7 and the “Redroot pigweed plant response rating” value (pigweed; [1]) was 0. The “Redroot pigweed plant response rating” value (pigweed; [2]) was 2, the “Plant response rating, Redroot pigweed” value (pigweed; [3]) was 0 and the “Plant response rating, Redroot pigweed” value (pigweed; [4]) was 0. For the same compound, the “Plant response rating, Redroot pigweed” value (pigweed; [5]) was 0, the “Redroot pigweed plant response rating” value (pigweed; [6]) was 8 and the “Redroot pigweed plant response rating” value (pigweed; [7]) was 0. The “Redroot pigweed plant response rating” value (pigweed; [8]) was 6, the “Rape plant response rating” value (rape; [1]) was 0 and the “Rape plant response rating” value (rape; [2]) was 0. The “Plant response rating, Rape” value (rape; [3]) was 0, the “Plant response rating, Rape” value (rape; [4]) was 0 and the “Plant response rating, Rape” value (rape; [5]) was 0. For the same compound, the “Rape plant response rating” value (rape; [6]) was 0, the “Rape plant response rating” value (rape; [7]) was 0 and the “Rape plant response rating” value (rape; [8]) was 0. The “Soybean plant response rating” value (soybean; [1]) was 2, the “Soybean plant response rating” value (soybean; [2]) was 2 and the “Plant response rating, Soybean” value (soybean; [3]) was 0. The “Plant response rating, Soybean” value (soybean; [4]) was 0, the “Soybean plant response rating” value (soybean; [6]) was 0 and the “Soybean plant response rating” value (soybean; [7]) was 2. For the same compound, the “Sugarbeets plant response rating” value (sugar beet; [1]) was 0, the “Sugarbeets plant response rating” value (sugar beet; [2]) was 0 and the “Plant response rating, Sugarbeets” value (sugar beet; [3]) was 0. For the same compound, the “Plant response rating, Sugarbeets” value (sugar beet; [4]) was 0, the “Plant response rating, Sugarbeets” value (sugar beet; [5]) was 3 and the “Sugarbeets plant response rating” value (sugar beet; [6]) was 6. For the same compound, the “Sugarbeets plant response rating” value (sugar beet; [7]) was 0, the “Velvetleaf plant response rating” value (velvetleaf; [1]) was 0 and the “Velvetleaf plant response rating” value (velvetleaf; [2]) was 0. The “Plant response rating, Velvetleaf” value (velvetleaf; [3]) was 0, the “Plant response rating, Velvetleaf” value (velvetleaf; [4]) was 0 and the “Velvetleaf plant response rating” value (velvetleaf; [6]) was 0. For the same compound, the “Velvetleaf plant response rating” value (velvetleaf; [7]) was 0, the “Wheat plant response rating” value (wheat; [1]) was 0 and the “Wheat plant response rating” value (wheat; [2]) was 0. The “Plant response rating, Wheat” value (wheat; [3]) was 0, the “Plant response rating, Wheat” value (wheat; [4]) was 0 and the “Plant response rating, Wheat” value (wheat; [5]) was 0. The “Wheat plant response rating” value (wheat; [6]) was 0, the “Wheat plant response rating” value (wheat; [7]) was 0 and the “Wild oats plant response rating” value (wild oat; [1]) was 0. For the same compound, the “Wild oats plant response rating” value (wild oat; [2]) was 0, the “Plant response rating, Wild oats” value (wild oat; [4]) was 0 and the “Plant response rating, Wild oats” value (wild oat; [5]) was 0. The “Wild oats plant response rating” value (wild oat; [6]) was 0, the “Wild oats plant response rating” value (wild oat; [7]) was 0 and the “Nutsedge plant response rating” value (purple nutsedge; [1]) was 0. For the same compound, the “Nutsedge plant response rating” value (purple nutsedge; [2]) was 0, the “Plant response rating, Nutsedge” value (purple nutsedge; [3]) was 0 and the “Plant response rating, Nutsedge” value (purple nutsedge; [4]) was 0. The “Nutsedge plant response rating” value (purple nutsedge; [6]) was 0, the “Nutsedge plant response rating” value (purple nutsedge; [7]) was 0 and the “Nutsedge plant response rating” value (purple nutsedge; [8]) was 0. For the same compound, the “Rice plant response rating” value (rice; [1]) was 0, the “Rice plant response rating” value (rice; [9]) was 0 and the “Rice plant response rating” value (rice; [10]) was 0. For the same compound, the “Rice plant response rating” value (rice; [11]) was 0, the “S. Flatsedge plant response rating” value (smallflower flatsedge; [1]) was 0 and the “S. Flatsedge plant response rating” value (smallflower flatsedge; [9]) was 0. For the same compound, the “S. Flatsedge plant response rating” value (smallflower flatsedge; [11]) was 0, the “Ducksalad plant response rating” value (duck salad; [1]) was 0 and the “Ducksalad plant response rating” value (duck salad; [9]) was 0. The “Ducksalad plant response rating” value (duck salad; [10]) was 0, the “Ducksalad plant response rating” value (duck salad; [11]) was 0 and the “Barnyardgrass plant response rating” value (bamyardgrass; [1]) was 0. For the same compound, the “Barnyardgrass plant response rating” value (bamyardgrass; [9]) was 0, the “Barnyardgrass plant response rating” value (bamyardgrass; [10]) was 0 and the “Barnyardgrass plant response rating” value (bamyardgrass; [11]) was 0.
